Results as given in patent US7247746B2, “Crystal forms of N-(trans-4-isopropylcyclohexylcarbonyl)-D-phenylalanine” (Novartis, AG, priority 2002, dated 2007).

Test: solubility of nateglinide in crystallisation solvents
Type: physicochemical
Description: First solvents in which nateglinide is readily soluble, i.e., in amounts of at least 1% by weight at an ambient temperature, include lower alcohols, such as methanol, ethanol and isopropanol. Polar solvents such as acetone, tetrahydrofuran, dioxane and dichloromethane can also be effective when used as the first solvent. Second solvents in which nateglinide is only poorly soluble, i.e., in amounts of 0.01% by weight or less, include water, hexane, heptane and diethyl ether. Where a mixed solvent is employed as the first solvent, a mixture of ethanol and toluene or a mixture of methanol and ethyl acetate is effective preferably in combination with water as the second solvent, and more preferably with water containing from about 0.5 to about 3% by weight of hydroxypropylmethylcellulose. The amount of nateglinide in the solvent ranges preferably from 1 to 50% by weight of the resulting mixture. If the amount of nateglinide is more than 50% by weight then the slurry properties of the initial suspension are poor and it will be difficult to agitate the mixture and dissolve the solid. On the other hand, it is not efficient in terms of the volume of the solvent required to use less than 1% of nateglinide by weight. […]

amount in which nateglinide is readily soluble (first solvents) (at an ambient temperature, methanol, ethanol, isopropanol, also acetone, tetrahydrofuran, dioxane, dichloromethane): at least 1 % by weight
amount in which nateglinide is only poorly soluble (second solvents) (water, hexane, heptane and diethyl ether): ≤ 0.01 % by weight
Structure (SMILES): CC(C)[C@H]1CC[C@H](C(=O)N[C@H](Cc2ccccc2)C(=O)O)CC1 [nateglinide, N-(trans-4-isopropylcyclohexylcarbonyl)-D-phenylalanine]
